Experimental data reported in publication PMC9356275, “A quantitative high-throughput screen identifies compounds that lower expression of the SCA2-and ALS-associated gene ATXN2” (The Journal of Biological Chemistry, 2022).
Where a name gives a salt, the structure may show the parent alone. Read-outs that look alike come from different tables or passages of the source.

How the values were obtained:
Assay type in all cases: cell-based, human
ATXN2-luc [1] = experiment: MSSR hit retest: ATXN2-luc luciferase assay, average of H2 and S1 cells (1 and 10 uM); set-up: H2&S1 ave luc 1uM / H2&S1 ave luc 10uM: scale not given here; settings: for activity at 1 µM / activity at 10 µM / activity: Homo sapiens; for activity at 1 µM: read-out: H2&S1 ave luc 1uM; for activity at 10 µM / H2&S1 ave luc 10uM: head line r3 10uM; for activity at 10 µM / activity: read-out: H2&S1 ave luc 10uM; for H2&S1 ave luc 10uM: head line r4 20 uM compound
Text: (§1) Supplement mmc2.xlsx, sheet "43 annotated compounds"

ATXN2-luc [2] = experiment: MSSR hit retest / multiconcentration testing: ATXN2-luc luciferase assay in H2 cells (1 and 10 μM); settings: for H2&S1 ave luc 1uM: 1 uM compound; for H2&S1 ave luc 10uM: 10 uM compound
ATXN2-luc [3] = experiment: MSSR pilot screen: ATXN2-luc luciferase assay (Bright-Glo) in H2 cells, single 10 μM dose; settings: for SD from mean (ATXN2-luc, Z-score): H2 cells, single dose (title: 10 μM compound), overnight; for ¦Score/1SD¦: absolute score divided by 1SD (0.891 or 0.9)
H2 and S1 cells = experiment: Paired MTT viability assay, average of H2 and S1 cells (1 and 10 uM); set-up: H2&S1 ave MTT 1uM / H2&S1 ave MTT 10uM: unit not given here; settings: for viability at 1 µM / viability at 10 µM: Homo sapiens
Text: as §1

[4] = 1 uM compound, average of H2 and S1 cells
[5] = luciferase, average of H2 and S1 cells expressing ATXN2-luc, rescreen
[6] = pilot screen at 10 µM compound, H2 cells expressing ATXN2-luc
[7] = 1 uM compound, read-out: H2&S1 ave MTT 1uM
[8] = 10 uM compound, read-out: H2&S1 ave MTT 10uM
[9] = luciferase assay, average of H2 and S1 cells (both ATXN2-luc), rescreen from plated libraries
[10] = pilot screen, H2 cells expressing ATXN2-luc, single dose printed as 10 μM compound
[11] = read-out: H2&S1 ave MTT 1uM, 1 uM compound
[12] = read-out: H2&S1 ave MTT 10uM, 10 uM compound

Compound | H2&S1 ave luc 1uM (ATXN2-luc [2]; [5]) | SD from mean (ATXN2-luc, Z-score) (ATXN2-luc [3]) [SD] | SD from mean (pilot screen) (ATXN2-luc [3]; pilot screen) [SD] | SD from mean (pilot screen) (ATXN2-luc [3]; [6]) | ¦Score/1SD¦ (ATXN2-luc [3]; pilot screen) | H2&S1 ave luc 1uM (ATXN2-luc [2]; [9]) | H2&S1 ave luc 10uM (ATXN2-luc [2]; [9]) | SD from mean (pilot screen) (ATXN2-luc [3]; [10]) | H2&S1 ave luc 1uM (ATXN2-luc [1]; [4]) | H2&S1 ave luc 10uM (ATXN2-luc [1]; average of H2 and S1 cells) | H2&S1 ave MTT 1uM (H2 and S1 cells; 1 uM compound) | H2&S1 ave MTT 10uM (H2 and S1 cells; 10 uM compound) | further results
CC(N/C(=N\C#N)Nc1ccncc1)C(C)(C)C (centres unmarked) | 117 | -4.875 | -4.875 | -4.875 | 5.47 | – | – | – | – | – | – | – | activity at 1 µM (ATXN2-luc [1]; [4]): 117%; activity at 10 µM (ATXN2-luc [1]; average of H2 and S1 cells): 17%; viability at 1 µM (H2 and S1 cells; [7]): 107%; viability at 10 µM (H2 and S1 cells; [8]): 51.5%
COc1cccc(C2(O)CCCCC2CN(C)C)c1 (centres unmarked) [Tramadol] | – | -3.415 | -3.415 | – | 3.79 | 107 | 134 | -3.415 | – | – | – | – | activity at 1 µM (ATXN2-luc [1]): 107%; activity (ATXN2-luc [1]): 134%; viability at 1 µM (H2 and S1 cells; [11]): 128%; viability at 10 µM (H2 and S1 cells; [12]): 113%
CNC1CC(c2ccc(Cl)c(Cl)c2)c2ccccc21 (centres unmarked) [Indatraline] | – | – | -3.071 | – | 3.41 | 107 | – | -3.071 | – | – | – | – | activity at 1 µM (ATXN2-luc [1]): 107%; activity (ATXN2-luc [1]): 5.53%; viability at 1 µM (H2 and S1 cells; [11]): 117%; viability at 10 µM (H2 and S1 cells; [12]): 13.5%
C1CCC(N=C(NC23CC4CC(CC(C4)C2)C3)N2CCOCC2)CC1.Cl [U-37883A] | 94 | -4.965 | -4.965 | -4.965 | 5.57 | – | – | – | 94 | 17 | 105.463 | 56.7572 | H2&S1 ave luc 10uM (ATXN2-luc [2]; [5]): 17
CC[C@H]1CN2CCc3cc(OC)c(OC)cc3[C@@H]2C[C@@H]1C[C@H]1NCCc2cc(O)c(OC)cc21.Cl.Cl.O.O.O.O.O.O.O [Cephaeline dihydrochloride heptahydrate] | 16 | -4.055 | -4.055 | -4.055 | 4.55 | – | – | – | 16 | 17 | 59.1374 | 62.1025 | H2&S1 ave luc 10uM (ATXN2-luc [2]; [5]): 17
Cyanocobalamin | – | -2.681 | -2.681 | – | 3.01 | 110 | 140 | -2.681 | 110 | 140 | 151.543 | 134.855 | –
O=c1[nH]c(=O)n([C@H]2C[C@H](O)[C@@H](CO)O2)cc1C(F)(F)F [Trifluridine] | 102 | -5.158 | -5.158 | -5.158 | 5.79 | – | – | – | – | – | – | – | activity at 1 µM (ATXN2-luc [1]; [4]): 102%; activity at 10 µM (ATXN2-luc [1]; average of H2 and S1 cells): 71%; viability at 1 µM (H2 and S1 cells; [7]): 80.3%; viability at 10 µM (H2 and S1 cells; [8]): 53%
[H]/N=C(/NCCCCC)N/N=C/c1c[nH]c2ccc(OC)cc12 [TEGASEROD MALEATE] | – | -3.606 | -3.606 | – | 4.01 | 105 | – | -3.606 | – | – | – | – | activity at 1 µM (ATXN2-luc [1]; [4]): 105%; activity at 10 µM (ATXN2-luc [1]; average of H2 and S1 cells): 8%; viability at 1 µM (H2 and S1 cells; [7]): 106%; viability at 10 µM (H2 and S1 cells; [8]): 14.2%
COc1ccc(CCCOC(Cn2ccnc2)c2ccc(OC)cc2)cc1 (centres unmarked) [SKF-96365] | – | -2.721 | -2.721 | – | 3.05 | 104 | 57 | -2.721 | 104 | 57 | 115.609 | 90.0391 | –
CS(=O)(=O)Nc1ccc(Cc2noc(-c3ccc4[nH]cc(CCN)c4c3)n2)cc1 [L-694 247] | – | -3.156 | -3.156 | – | 3.51 | 110 | 6 | -3.156 | 110 | 6 | 107.272 | 16.3621 | –
STROPH[…] LACTONE ACETATE | 37 | -3.855 | -3.855 | -3.855 | 4.28 | – | – | – | 37 | – | 43.5914 | 36.6277 | H2&S1 ave luc 10uM (ATXN2-luc [2]; [5]): 20
